Measurements from ChEMBL document CHEMBL1127132, “Synthesis and biological activity of tetracyclic carbapenems” (1993).
≈ marks a conversion by molar mass, not a printed value.

The compounds below were run on Proteus vulgaris (assay: Compound was evaluated for antibacterial activity against Proteus vulgaris N6 compared to imipenem).
Type: functional

| SMILES | MIC [µg/mL] |
| --- | --- |
| C[C@@H](O)[C@H]1C(=O)N2C(C(=O)[O-])=C3c4ccccc4CCC[C@@H]3[C@H]12.[Na+] | 1 |
| C[C@@H](O)[C@H]1C(=O)N2C(C(=O)O)=C(SCCNC=N)C[C@H]12 [IMIPENEM ANHYDROUS] | 0.5 (≈ 1.67 µM) |
| C[C@@H](O)[C@H]1C(=O)N2C(C(=O)[O-])=C3c4ccsc4CC[C@@H]3[C@H]12.[Na+] | < 0.25 |
| C[C@@H](O)[C@H]1C(=O)N2C(C(=O)[O-])=C3c4ccccc4SC[C@@H]3[C@H]12.[Na+] | < 0.25 |

Each compound was assayed on Staphylococcus aureus (assay: Compound was evaluated for antibacterial activity against Staphylococcus aurues 133 compared to imipenem).
Type: functional

| SMILES | MIC [µg/mL] |
| --- | --- |
| C[C@@H](O)[C@H]1C(=O)N2C(C(=O)[O-])=C3c4ccsc4CC[C@@H]3[C@H]12.[Na+] | 1 |

These compounds were tested on Morganella morganii (assay: Compound was evaluated for antibacterial activity against Proteus morganii.932 compared to imipenem).
Type: functional

| SMILES | MIC [µg/mL] |
| --- | --- |
| C[C@@H](O)[C@H]1C(=O)N2C(C(=O)[O-])=C3c4ccccc4CCC[C@@H]3[C@H]12.[Na+] | 16 |
| C[C@@H](O)[C@H]1C(=O)N2C(C(=O)O)=C(SCCNC=N)C[C@H]12 [IMIPENEM ANHYDROUS] | 0.5 (≈ 1.67 µM) |
| C[C@@H](O)[C@H]1C(=O)N2C(C(=O)[O-])=C3c4ccsc4CC[C@@H]3[C@H]12.[Na+] | 2 |
| C[C@@H](O)[C@H]1C(=O)N2C(C(=O)[O-])=C3c4ccccc4SC[C@@H]3[C@H]12.[Na+] | 1 |

These compounds were tested on Staphylococcus (assay: Tested for antibacterial activity against Staphylococcus 25470 compared to imipenem).
Type: functional

| SMILES | MIC [µg/mL] |
| --- | --- |
| C[C@@H](O)[C@H]1C(=O)N2C(C(=O)[O-])=C3c4ccccc4CCC[C@@H]3[C@H]12.[Na+] | 128 |

These compounds were tested on Providencia rettgeri (assay: Compound was evaluated for antibacterial activity against Proteus rettgeri 10007 compared to imipenem).
Type: functional

| SMILES | MIC [µg/mL] |
| --- | --- |
| C[C@@H](O)[C@H]1C(=O)N2C(C(=O)[O-])=C3c4ccccc4CCC[C@@H]3[C@H]12.[Na+] | 16 |
| C[C@@H](O)[C@H]1C(=O)N2C(C(=O)O)=C(SCCNC=N)C[C@H]12 [IMIPENEM ANHYDROUS] | 2 (≈ 6.68 µM) |
| C[C@@H](O)[C@H]1C(=O)N2C(C(=O)[O-])=C3c4ccsc4CC[C@@H]3[C@H]12.[Na+] | 4 |
| C[C@@H](O)[C@H]1C(=O)N2C(C(=O)[O-])=C3c4ccccc4SC[C@@H]3[C@H]12.[Na+] | 2 |

What follows are compounds tested on Staphylococcus (assay: Compound was evaluated for antibacterial activity against Staphylococcus 25455 compared to imipenem).
Type: functional

| SMILES | MIC [µg/mL] |
| --- | --- |
| C[C@@H](O)[C@H]1C(=O)N2C(C(=O)[O-])=C3c4ccccc4CCC[C@@H]3[C@H]12.[Na+] | 0.5 |
| C[C@@H](O)[C@H]1C(=O)N2C(C(=O)O)=C(SCCNC=N)C[C@H]12 [IMIPENEM ANHYDROUS] | < 0.25 |
| C[C@@H](O)[C@H]1C(=O)N2C(C(=O)[O-])=C3c4ccsc4CC[C@@H]3[C@H]12.[Na+] | 1 |
| C[C@@H](O)[C@H]1C(=O)N2C(C(=O)[O-])=C3c4ccccc4SC[C@@H]3[C@H]12.[Na+] | < 0.25 |

The compounds below were run on Staphylococcus (assay: Compound was evaluated for antibacterial activity against Staphylococcus 25470 compared to imipenem).
Type: functional

| SMILES | MIC [µg/mL] |
| --- | --- |
| C[C@@H](O)[C@H]1C(=O)N2C(C(=O)O)=C(SCCNC=N)C[C@H]12 [IMIPENEM ANHYDROUS] | 32 (≈ 107 µM) |
| C[C@@H](O)[C@H]1C(=O)N2C(C(=O)[O-])=C3c4ccsc4CC[C@@H]3[C@H]12.[Na+] | 32 |
| C[C@@H](O)[C@H]1C(=O)N2C(C(=O)[O-])=C3c4ccccc4SC[C@@H]3[C@H]12.[Na+] | 8 |

These compounds were tested on Enterobacter cloacae (assay: Compound was evaluated for antibacterial activity against Enterobacter cloacae 5744 compared to imipenem).
Type: functional

| SMILES | MIC [µg/mL] |
| --- | --- |
| C[C@@H](O)[C@H]1C(=O)N2C(C(=O)[O-])=C3c4ccccc4CCC[C@@H]3[C@H]12.[Na+] | 32 |
| C[C@@H](O)[C@H]1C(=O)N2C(C(=O)[O-])=C3c4ccsc4CC[C@@H]3[C@H]12.[Na+] | 8 |
| C[C@@H](O)[C@H]1C(=O)N2C(C(=O)[O-])=C3c4ccccc4SC[C@@H]3[C@H]12.[Na+] | 4 |

These compounds were tested on Proteus mirabilis (assay: Compound was evaluated for antibacterial activity against Proteus mirabilis 1235 compared to imipenem).
Type: functional

| SMILES | MIC [µg/mL] |
| --- | --- |
| C[C@@H](O)[C@H]1C(=O)N2C(C(=O)[O-])=C3c4ccccc4CCC[C@@H]3[C@H]12.[Na+] | 0.5 |
| C[C@@H](O)[C@H]1C(=O)N2C(C(=O)O)=C(SCCNC=N)C[C@H]12 [IMIPENEM ANHYDROUS] | 4 (≈ 13.4 µM) |
| C[C@@H](O)[C@H]1C(=O)N2C(C(=O)[O-])=C3c4ccsc4CC[C@@H]3[C@H]12.[Na+] | 1 |
| C[C@@H](O)[C@H]1C(=O)N2C(C(=O)[O-])=C3c4ccccc4SC[C@@H]3[C@H]12.[Na+] | < 0.25 |

These compounds were tested on Acinetobacter (assay: (§1) Compound was evaluated for antibacterial activity against Acinetobacter 14601 compared to imipenem).
Type: functional

| SMILES | MIC [µg/mL] |
| --- | --- |
| C[C@@H](O)[C@H]1C(=O)N2C(C(=O)[O-])=C3c4ccccc4CCC[C@@H]3[C@H]12.[Na+] | 64 |
| C[C@@H](O)[C@H]1C(=O)N2C(C(=O)[O-])=C3c4ccsc4CC[C@@H]3[C@H]12.[Na+] | 16 |
| C[C@@H](O)[C@H]1C(=O)N2C(C(=O)[O-])=C3c4ccccc4SC[C@@H]3[C@H]12.[Na+] | 4 |

What follows are compounds tested on Acinetobacter sp. (assay: as §1).
Type: functional

| SMILES | MIC [µg/mL] |
| --- | --- |
| C[C@@H](O)[C@H]1C(=O)N2C(C(=O)O)=C(SCCNC=N)C[C@H]12 [IMIPENEM ANHYDROUS] | < 0.25 |

What follows are compounds tested on Serratia (assay: Compound was evaluated for antibacterial activity against serratia 16001 compared to imipenem).
Type: functional

| SMILES | MIC [µg/mL] |
| --- | --- |
| C[C@@H](O)[C@H]1C(=O)N2C(C(=O)[O-])=C3c4ccccc4CCC[C@@H]3[C@H]12.[Na+] | 64 |
| C[C@@H](O)[C@H]1C(=O)N2C(C(=O)O)=C(SCCNC=N)C[C@H]12 [IMIPENEM ANHYDROUS] | < 0.25 |
| C[C@@H](O)[C@H]1C(=O)N2C(C(=O)[O-])=C3c4ccsc4CC[C@@H]3[C@H]12.[Na+] | 32 |
| C[C@@H](O)[C@H]1C(=O)N2C(C(=O)[O-])=C3c4ccccc4SC[C@@H]3[C@H]12.[Na+] | 8 |

These compounds were tested on Klebsiella (assay: Compound was evaluated for antibacterial activity against Klebsiella 57USA compared to imipenem).
Type: functional

| SMILES | MIC [µg/mL] |
| --- | --- |
| C[C@@H](O)[C@H]1C(=O)N2C(C(=O)[O-])=C3c4ccccc4CCC[C@@H]3[C@H]12.[Na+] | 1 |
| C[C@@H](O)[C@H]1C(=O)N2C(C(=O)O)=C(SCCNC=N)C[C@H]12 [IMIPENEM ANHYDROUS] | < 0.25 |
| C[C@@H](O)[C@H]1C(=O)N2C(C(=O)[O-])=C3c4ccsc4CC[C@@H]3[C@H]12.[Na+] | 4 |
| C[C@@H](O)[C@H]1C(=O)N2C(C(=O)[O-])=C3c4ccccc4SC[C@@H]3[C@H]12.[Na+] | 4 |

Each compound was assayed on Enterobacter cloacae (assay: Compound was evaluated for antibacterial activity against Enterob. cl.5744 compared to imipenem).
Type: functional

| SMILES | MIC [µg/mL] |
| --- | --- |
| C[C@@H](O)[C@H]1C(=O)N2C(C(=O)O)=C(SCCNC=N)C[C@H]12 [IMIPENEM ANHYDROUS] | 0.5 (≈ 1.67 µM) |

What follows are compounds tested on Escherichia coli (assay: Compound was evaluated for antibacterial activity against Escherichia coli Neumann compared to imipenem).
Type: functional

| SMILES | MIC [µg/mL] |
| --- | --- |
| C[C@@H](O)[C@H]1C(=O)N2C(C(=O)[O-])=C3c4ccccc4CCC[C@@H]3[C@H]12.[Na+] | 2 |
| C[C@@H](O)[C@H]1C(=O)N2C(C(=O)O)=C(SCCNC=N)C[C@H]12 [IMIPENEM ANHYDROUS] | < 0.25 |
| C[C@@H](O)[C@H]1C(=O)N2C(C(=O)[O-])=C3c4ccsc4CC[C@@H]3[C@H]12.[Na+] | 1 |
| C[C@@H](O)[C@H]1C(=O)N2C(C(=O)[O-])=C3c4ccccc4SC[C@@H]3[C@H]12.[Na+] | 0.5 |

What follows are compounds tested on Staphylococcus aureus (assay: Compound was evaluated for antibacterial activity against Staphylococcus aureus 133 compared to imipenem).
Type: functional

| SMILES | MIC [µg/mL] |
| --- | --- |
| C[C@@H](O)[C@H]1C(=O)N2C(C(=O)[O-])=C3c4ccccc4CCC[C@@H]3[C@H]12.[Na+] | 0.5 |
| C[C@@H](O)[C@H]1C(=O)N2C(C(=O)O)=C(SCCNC=N)C[C@H]12 [IMIPENEM ANHYDROUS] | < 0.25 |
| C[C@@H](O)[C@H]1C(=O)N2C(C(=O)[O-])=C3c4ccccc4SC[C@@H]3[C@H]12.[Na+] | < 0.25 |

The compounds below were run on Klebsiella (assay: Compound was evaluated for antibacterial activity against Klebsiella 63 compared to imipenem).
Type: functional

| SMILES | MIC [µg/mL] |
| --- | --- |
| C[C@@H](O)[C@H]1C(=O)N2C(C(=O)[O-])=C3c4ccccc4CCC[C@@H]3[C@H]12.[Na+] | 16 |
| C[C@@H](O)[C@H]1C(=O)N2C(C(=O)O)=C(SCCNC=N)C[C@H]12 [IMIPENEM ANHYDROUS] | < 0.25 |
| C[C@@H](O)[C@H]1C(=O)N2C(C(=O)[O-])=C3c4ccsc4CC[C@@H]3[C@H]12.[Na+] | 4 |
| C[C@@H](O)[C@H]1C(=O)N2C(C(=O)[O-])=C3c4ccccc4SC[C@@H]3[C@H]12.[Na+] | 2 |

Each compound was assayed on Escherichia coli (assay: Compound was evaluated for antibacterial activity against Escherichia coli F14 compared to imipenem).
Type: functional

| SMILES | MIC [µg/mL] |
| --- | --- |
| C[C@@H](O)[C@H]1C(=O)N2C(C(=O)[O-])=C3c4ccccc4CCC[C@@H]3[C@H]12.[Na+] | 16 |
| C[C@@H](O)[C@H]1C(=O)N2C(C(=O)O)=C(SCCNC=N)C[C@H]12 [IMIPENEM ANHYDROUS] | < 0.25 |
| C[C@@H](O)[C@H]1C(=O)N2C(C(=O)[O-])=C3c4ccsc4CC[C@@H]3[C@H]12.[Na+] | 8 |
| C[C@@H](O)[C@H]1C(=O)N2C(C(=O)[O-])=C3c4ccccc4SC[C@@H]3[C@H]12.[Na+] | 8 |

What follows are compounds tested on Pseudomonas aeruginosa (assay: Compound was evaluated for antibacterial activity against Pseudomonas aeruginosa F 41 compared to imipenem).
Type: functional

| SMILES | MIC [µg/mL] |
| --- | --- |
| C[C@@H](O)[C@H]1C(=O)N2C(C(=O)[O-])=C3c4ccccc4CCC[C@@H]3[C@H]12.[Na+] | 128 |
| C[C@@H](O)[C@H]1C(=O)N2C(C(=O)O)=C(SCCNC=N)C[C@H]12 [IMIPENEM ANHYDROUS] | 2 (≈ 6.68 µM) |
| C[C@@H](O)[C@H]1C(=O)N2C(C(=O)[O-])=C3c4ccsc4CC[C@@H]3[C@H]12.[Na+] | 128 |
| C[C@@H](O)[C@H]1C(=O)N2C(C(=O)[O-])=C3c4ccccc4SC[C@@H]3[C@H]12.[Na+] | 128 |

These compounds were tested on Serratia (assay: Compound was evaluated for antibacterial activity against serratia 16002 compared to imipenem).
Type: functional

| SMILES | MIC [µg/mL] |
| --- | --- |
| C[C@@H](O)[C@H]1C(=O)N2C(C(=O)[O-])=C3c4ccccc4CCC[C@@H]3[C@H]12.[Na+] | 64 |
| C[C@@H](O)[C@H]1C(=O)N2C(C(=O)O)=C(SCCNC=N)C[C@H]12 [IMIPENEM ANHYDROUS] | 0.5 (≈ 1.67 µM) |
| C[C@@H](O)[C@H]1C(=O)N2C(C(=O)[O-])=C3c4ccsc4CC[C@@H]3[C@H]12.[Na+] | 32 |
| C[C@@H](O)[C@H]1C(=O)N2C(C(=O)[O-])=C3c4ccccc4SC[C@@H]3[C@H]12.[Na+] | 16 |
